As a reminder, the IC50 is the concentration needed to halve the response being measured. What is called inhibition is the drop in the measured response relative to a control, in per cent.

We go through eight compounds from paper PMC4955201, “α-Glucosidase inhibitors from the bark of Mangifera mekongensis” (Chemistry Central Journal, 2016).

The target in this assay is T1, α-Glucosidase (EC 3.2.1.20) from Saccharomyces cerevisiae (Saccharomyces cerevisiae, UniProt P53341).
T1 construct: purchased Sigma Chemical Co. (St. Louis, MO, USA)
T1 sequence (P53341 whole entry): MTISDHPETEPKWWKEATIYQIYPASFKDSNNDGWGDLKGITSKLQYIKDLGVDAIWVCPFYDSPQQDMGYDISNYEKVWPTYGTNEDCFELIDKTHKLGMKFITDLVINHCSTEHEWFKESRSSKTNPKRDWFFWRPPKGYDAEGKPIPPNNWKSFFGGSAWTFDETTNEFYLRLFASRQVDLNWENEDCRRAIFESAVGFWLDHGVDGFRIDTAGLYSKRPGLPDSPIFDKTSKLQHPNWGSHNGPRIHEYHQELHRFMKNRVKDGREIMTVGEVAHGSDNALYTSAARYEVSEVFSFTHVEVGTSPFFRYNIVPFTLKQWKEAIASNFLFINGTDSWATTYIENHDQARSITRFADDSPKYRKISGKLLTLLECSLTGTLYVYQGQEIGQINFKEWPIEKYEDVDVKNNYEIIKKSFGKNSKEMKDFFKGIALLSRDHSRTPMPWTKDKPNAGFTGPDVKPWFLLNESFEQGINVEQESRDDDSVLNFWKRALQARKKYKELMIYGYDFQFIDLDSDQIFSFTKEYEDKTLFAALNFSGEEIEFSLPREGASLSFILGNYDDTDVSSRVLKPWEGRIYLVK
The assay is described as follows: biochemical. The assay is classed as biochemical. Particulars: for α-glucosidase inhibitory activity (in words): tested at 1 to 250 µM; for inhibition at 10 µM / inhibition at 25 µM / inhibition at 50 µM / inhibition at 100 µM / inhibition at 250 µM / inhibition at 1 µM / inhibition at 2.5 µM / inhibition at 5 µM: read-out: Inhibition (I %). As for the experimental part: α-Glucosidase (EC 3.2.1.20) from Saccharomyces cerevisiae (750 UN) and p-nitrophenyl-α-D-glucopyranoside were obtained from Sigma Chemical Co. (St. Louis, MO, USA). […] Silica gel 60, 40–63 µm (230–400 mesh ASTM), for column chromatography was purchased from Scharlau (Barcelona, Spain). Analytical and preparative TLC were carried out on precoated Kiesegel 60F254 or RP-18F254 plates (0.25 or 0.5 mm thickness) (Merck, Germany). Other chemicals were of the highest grade available.
The inhibitory activity of α-glucosidase was determined according to the modified method of Kim et al.. 3 mM p-nitrophenyl-α-D-glucopyranoside (25 μL) and 0.2 U/mL α-glucosidase (25 μL) in 0.01 M phosphate buffer (pH = 7.0) were added to the sample solution (625 μL) to start the reaction. Each reaction was carried out at 37 °C for 30 min and stopped by adding 0.1 M Na2CO3 (375 μL). […] One unit of α-glucosidase activity was defined as amount of enzyme liberating p-nitrophenol ([…]) per min.

The mark [1] stands for this setting: isolated compounds, pH 7.0, 37 °C, 30 min, read-out: α-Glucosidase inhibitory activity IC50.

Where two headings read alike, the source gives them in different places.

On to `CC[C@H](CC[C@@H](C)[C@H]1CC[C@H]2[C@@H]3CC(=O)C4CC(=O)CC[C@]4(C)[C@H]3CC[C@]12C)C(C)C` (stereo partly shown) [Compound 4, stigmastane-3,6-dione], for which the “α-glucosidase inhibitory activity (in words)” value was “inactive”. Also, the IC50 under setting [1] was greater than 250 µM.

In the case of `CCCCCCCCCCCCCCCC(=O)OC[C@H]1O[C@@H](O[C@H]2CC[C@@]3(C)C(=CC[C@H]4[C@@H]5CC[C@H]([C@H](C)CC[C@@H](CC)C(C)C)[C@@]5(C)CC[C@@H]43)C2)[C@H](O)[C@@H](O)[C@@H]1O` [Compound 5, β-sitosteryl-3-O-β-D-glucopyranosyl-6′-O-palmitate], the inhibition at 10 µM came to 32.1 ± 2.3%, the inhibition at 25 µM was 49.7 ± 3.1%, the inhibition at 50 µM was found to be 75.9 ± 2.6% and the inhibition at 100 µM came to 90.9 ± 1.4%. Under setting [1], the IC50 was 21.1 µM.

Regarding `CCCCCCCCCCCCCCCCCCC(=O)OC1CCC2(C)C(=CCC3C2CCC2(C)C(C(C)CCC(CC)C(C)C)CCC32)C1` (stereo not drawn) [Compound 1, 3β-nonadecanoylsitosterol], the inhibition at 10 µM was 24.4 ± 1.8%, the inhibition at 25 µM stood at 38.6 ± 1.2%, the inhibition at 50 µM was 67.7 ± 1.4% and the inhibition at 100 µM was 91.8 ± 1.1%. For the same compound, under setting [1], the half-maximal inhibitory concentration (IC50) was 27.7 µM.

Consider `C[C@H]1O[C@H](O[C@H]2[C@H](O)[C@@H](O)[C@@H](O[C@H]3[C@H](O)[C@@H](O)C(O)O[C@@H]3CO)O[C@@H]2CO)[C@H](O)[C@@H](O)[C@@H]1N[C@H]1C=C(CO)[C@@H](O)[C@H](O)[C@H]1O` (stereo partly shown) [Acarbose, reference compound], for which the inhibition at 50 µM stood at 9.8 ± 1.1%, the inhibition at 100 µM was 21.2 ± 2.2% and the inhibition at 250 µM is 59.8 ± 1.2%.

Take `CCC(CCC(C)C1CCC2C3CC=C4CC(OC(=O)CCCCCCCC(=O)O)CCC4(C)C3CCC12C)C(C)C` (stereo not drawn) [Compound 2, 3β-(8-carboxyoctanoyl)sitosterol]: the inhibition at 1 µM was found to be 15.2 ± 1.2%, the inhibition at 2.5 µM was determined as 50.8 ± 1.1%, the inhibition at 5 µM was determined as 82.6 ± 1.4% and the inhibition at 10 µM is 93.1 ± 1.2%. Besides, the IC50 under setting [1] is 2.5 µM.

For the compound `CC[C@H](CC[C@@H](C)[C@H]1CC[C@H]2[C@@H]3CC=C4C[C@@H](O)CC[C@]4(C)[C@H]3CC[C@]12C)C(C)C` [Compound 3, β-sitosterol], the “α-glucosidase inhibitory activity (in words)” value is “inactive”. The IC50 under setting [1] was greater than 250 µM.

For `CC(=CCCC(C)C1CCC2(C)C3CCC4C(C)(C)C(O)CCC45CC35CCC12C)C(=O)O` (stereo not shown) [Compound 9, ambolic acid], the 50% inhibitory concentration (IC50) was 112 µM, the inhibition at 50 µM turned out to be 15.9 ± 1.1%, the inhibition at 100 µM came to 32.2 ± 1% and the inhibition at 250 µM was 95.9 ± 1%.

Turning to `CC(=CCCC(C)C1CCC2(C)C3CCC4C(C)(C)C(=O)CCC45CC35CCC12C)C(=O)O` (stereo not shown) [Compound 8, ambonic acid], half-maximal inhibition (IC50) was put at 1.2 µM, the inhibition at 1 µM turned out to be 46.5 ± 1.1%, the inhibition at 2.5 µM came out at 62.5 ± 1.1% and the inhibition at 5 µM is 78.4 ± 1.6%. The inhibition at 10 µM worked out at 87.5 ± 1%.
